Measurements published in ChEMBL document CHEMBL1177695, “Discovery and development of natural product-derived chemotherapeutic agents based on a medicinal chemistry approach” (J Nat Prod, 2010).
Values after ≈ are worked out from the molar mass of the structure shown. One block for each compound: values may come before it. Active and inactive are the calls of the source. The rule behind the calls is not given here.

Legend:
[1] = Therapeutic index, ratio of IC50 for human H9 cells to EC50 for multidrug-resistant HIV1 RTMDR1; assay type: cell-based; conditions: read-out: TI
[2] = tested on: Human immunodeficiency virus 1; experiment: Antiviral activity against HIV1 3B infected in H9 cells assessed as inhibition of viral replication by p24 antigen ELISA; assay type: functional, organism-based; conditions: Human immunodeficiency virus 1, 3B, H9; read-out: EC50
H9 = experiment: Cytotoxicity against human H9 cells after 4 days by coulter counter; assay type: cell-based; conditions: Homo sapiens, H9, 96 h
[3] = tested on: Human immunodeficiency virus 1; experiment: Antiviral activity against multidrug-resistant HIV1 RTMDR1 infected in H9 cells assessed as inhibition of viral replication by p24 antigen ELISA; assay type: functional, organism-based; conditions: Human immunodeficiency virus 1, RTMDR1, H9
[4] = Therapeutic index, ratio of IC50 for human H9 cells to EC50 for HIV 3B; assay type: cell-based; conditions: read-out: TI
Tubulin = experiment: Inhibition of tubulin polymerization
[5] = Therapeutic index, ratio of IC50 for human H9 cells to EC50 for HIV1; assay type: cell-based; conditions: read-out: TI
[6] = tested on: Human immunodeficiency virus 1; experiment: Antiviral activity against HIV1 infected in human H9 cells after 4 days by p24 antigen ELISA; assay type: functional, organism-based; conditions: Human immunodeficiency virus 1, H9, 96 h
[7] = tested on: Human immunodeficiency virus 1; experiment: Anti-HIV-1 activity in human H9 cells; conditions: H9, 96 h
Hep-2 (human) = experiment: Cytotoxicity against human Hep-2 cells; conditions: for EC50: read-out: ED50 (the source's name)

SMILES: CCCc1cc(=O)c2ccc3c(c2o1)[C@@H](OC(=O)C12CCC(C)(C(=O)O1)C2(C)C)[C@@H](OC(=O)C12CCC(C)(C(=O)O1)C2(C)C)C(C)(C)O3 (some centres undefined)
selectivity ratio [1]: > 272
EC50 [2]: 20 nM
IC50 (H9): > 37700 nM
EC50 [3]: 140 nM
selectivity ratio [4]: 1860

IC50 (Tubulin): 750 nM
SMILES: COc1cccc(-c2cc(=O)c3ccc(C)nc3[nH]2)c1

IC50 [6]: 12800 nM
EC50 [7]: 44 nM
SMILES: C=C(C)[C@@H]1CC[C@]2(C(=O)O)CC[C@]3(C)[C@H](CC[C@@H]4[C@@]5(C)CC[C@H](OC(=O)CCCC(=O)O)C(C)(C)[C@@H]5CC[C@]43C)[C@@H]12
selectivity ratio [5]: 292

SMILES: CCOCc1cc(=O)c2ccc3c(c2o1)[C@@H](OC(=O)C12CCC(C)(C(=O)O1)C2(C)C)[C@@H](OC(=O)C12CCC(C)(C(=O)O1)C2(C)C)C(C)(C)O3 (some centres undefined)
selectivity ratio [1]: 34
EC50 [2]: 100 nM
IC50 (H9): 12500 nM
EC50 [3]: 370 nM
selectivity ratio [4]: 151

IC50 (Tubulin): 550 nM
SMILES: Cc1cnc2nc(-c3cccc4ccccc34)cc(O)c2c1

SMILES: C=C(C)[C@@H]1CC[C@]2(C(=O)O)CC[C@]3(C)[C@H](CC[C@@H]4[C@@]5(C)CC[C@H](OC(=O)CC(C)(C)CC(=O)O)C(C)(C)[C@@H]5CC[C@]43C)[C@@H]12
selectivity ratio [5]: 2000
IC50 [6]: 4500 nM
EC50 [7]: 3 nM

IC50 (Tubulin): 530 nM
SMILES: Cc1ccc2c(=O)cc(-c3cccc(F)c3)[nH]c2n1

SMILES: CCc1cc(=O)c2ccc3c(c2o1)[C@@H](OC(=O)C12CCC(C)(C(=O)O1)C2(C)C)[C@@H](OC(=O)C12CCC(C)(C(=O)O1)C2(C)C)C(C)(C)O3 (some centres undefined)
selectivity ratio [1]: 718
IC50 (H9): 37200 nM
EC50 [3]: 60 nM
selectivity ratio [4]: 116000

IC50 (Tubulin): 720 nM
SMILES: Cc1cnc2[nH]c(-c3cccc(Cl)c3)cc(=O)c2c1

IC50 (Tubulin): 630 nM
SMILES: Cc1cnc2[nH]c(-c3cccc(F)c3)cc(=O)c2c1

IC50 [6]: 48000 nM
EC50 [7]: 19000 nM
SMILES: C=C(C)[C@@H]1CC[C@]2(C(=O)O)CC[C@]3(C)[C@H](CC[C@@H]4[C@@]5(C)CC[C@H](OC(=O)/C=C/C)C(C)(C)[C@@H]5CC[C@]43C)[C@@H]12

EC50 [7]: 0.35 nM
SMILES: C=C(C)[C@@H]1CC[C@]2(C(=O)O)CC[C@]3(C)[C@H](CC[C@@H]4[C@@]5(C)CC[C@H](OC(=O)CC(C)(C)C(=O)O)C(C)(C)[C@@H]5CC[C@]43C)[C@@H]12 [BEVIRIMAT]
selectivity ratio [5]: 20000

SMILES: CC1(C)Oc2ccc3c(=O)cc(-c4ccccc4)oc3c2[C@@H](OC(=O)C23CCC(C)(C(=O)O2)C3(C)C)[C@H]1OC(=O)C12CCC(C)(C(=O)O1)C2(C)C (some centres undefined)
selectivity ratio [1]: 71
EC50 [2]: 130 nM
IC50 (H9): 12200 nM
EC50 [3]: 170 nM
selectivity ratio [4]: 277

SMILES: C[C@@H]1C[C@H]2OC(=O)[C@@H](C)[C@H]2[C@H](O)[C@]2(C)C(=O)CC[C@@H]12
ED50 (Hep-2 (human)): inactive

IC50 [6]: 16000 nM
EC50 [7]: 4000 nM
SMILES: C=C(C)[C@@H]1CC[C@]2(C(=O)O)CC[C@]3(C)[C@H](CC[C@@H]4[C@@]5(C)CC[C@H](OC(=O)CCC(=O)O)C(C)(C)[C@@H]5CC[C@]43C)[C@@H]12
selectivity ratio [5]: 4

SMILES: C=C1C(=O)O[C@@H]2C[C@@H](C)[C@@H]3CCC(=O)[C@@]3(C)[C@@H](O)[C@H]12
EC50 (Hep-2 (human)): 3.84 µg/mL (≈ 14.5 µM)

SMILES: Cc1cc(=O)c2ccc3c(c2o1)[C@@H](OC(=O)C12CCC(C)(C(=O)O1)C2(C)C)[C@@H](OC(=O)C12CCC(C)(C(=O)O1)C2(C)C)C(C)(C)O3 (some centres undefined)
selectivity ratio [1]: 63
IC50 (H9): 11800 nM
EC50 [3]: 190 nM
selectivity ratio [4]: 8600

SMILES: C[C@@H]1C[C@H]2OC(=O)[C@@H](C)[C@H]2[C@H](O)[C@]2(C)C(=O)C=C[C@@H]12
EC50 (Hep-2 (human)): 0.8 µg/mL (≈ 3.03 µM)

SMILES: CC(C)c1cc(=O)c2ccc3c(c2o1)[C@@H](OC(=O)C12CCC(C)(C(=O)O1)C2(C)C)[C@@H](OC(=O)C12CCC(C)(C(=O)O1)C2(C)C)C(C)(C)O3 (some centres undefined)
selectivity ratio [1]: > 111
EC50 [2]: 70 nM
IC50 (H9): 15000 nM
EC50 [3]: 140 nM
selectivity ratio [4]: 483
